From publication PMC9233675, “Ru(II) photocages enable precise control over enzyme activity with red light” (Nature Communications, 2022)
pIC50: −log10 of the molar value. Where “and” joins values, the source holds several entries; their conditions need not be identical. Equal values may be shown once.

Key:
[1] = Cellular viability (resazurin to resorufin, 72 h); format: cell-based, human; conditions: human, parental HEK293 T-Rex cells, HEK293 T-Rex, after 72 hrs
Description: (§1) The cells were >70% viable at 72 h with 10 μM compound, as quantified by metabolically active cells determined by the conversion of resazurin to resorufin (Supplementary Figs. 18–20).
(§2) The parental HEK T-Rex cell line was maintained as above, in the absence of Zeocin. Compounds were serially diluted in media, and the cells were dosed from 0–30 μM compound, and then incubated at 37 °C (n = 3). […] The cells were incubated with the compound in the dark for 30 min prior to light exposure, using the same parameters as in the enzyme activity assay, and then treated as above.

[2] = system: HEK293 T-Rex cell line; assay: Cellular viability (resazurin to resorufin, 72 h); format: cell-based, human; conditions: HEK293 T-Rex, after 72 hrs
Description: as §1, §2

[3] = target: T1, CYP19A1 (Homo sapiens, UniProt P11511); assay: In cell activity assay for CYP19A1 (dibenzylfluorescein conversion, HEK293 T-Rex cells); format: cell-based; conditions: Dark; conversion of dibenzylfluorescein (DBF); read-out: IC50 CYP19A1 Dark
T1 sequence (P11511 1-503): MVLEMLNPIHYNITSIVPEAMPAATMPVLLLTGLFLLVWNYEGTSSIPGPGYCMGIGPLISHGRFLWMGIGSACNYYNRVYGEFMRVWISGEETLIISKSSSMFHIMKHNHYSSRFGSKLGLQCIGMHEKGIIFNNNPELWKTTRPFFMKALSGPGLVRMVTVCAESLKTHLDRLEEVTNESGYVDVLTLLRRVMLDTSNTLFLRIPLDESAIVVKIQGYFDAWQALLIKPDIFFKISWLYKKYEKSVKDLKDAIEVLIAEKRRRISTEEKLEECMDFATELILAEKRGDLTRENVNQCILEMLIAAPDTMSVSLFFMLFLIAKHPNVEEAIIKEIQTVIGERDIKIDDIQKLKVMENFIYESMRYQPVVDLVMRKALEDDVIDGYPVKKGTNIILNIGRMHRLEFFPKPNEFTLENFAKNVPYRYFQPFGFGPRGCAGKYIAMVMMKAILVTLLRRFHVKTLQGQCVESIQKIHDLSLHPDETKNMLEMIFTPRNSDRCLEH
Description: Thus, the activity against CYP19A1 was evaluated using a recently developed in-cell fluorometric assay.
REE or DBF was added as described above.

[4] = target: T2, CYP1B1 (Homo sapiens, UniProt Q16678); assay: In cell activity assay for CYP1B1 (7-ethoxyresorufin conversion, HEK293 T-Rex cells); conditions: CYP1B1; for % Enzyme Activity: dark
T2 sequence (Q16678 1-543): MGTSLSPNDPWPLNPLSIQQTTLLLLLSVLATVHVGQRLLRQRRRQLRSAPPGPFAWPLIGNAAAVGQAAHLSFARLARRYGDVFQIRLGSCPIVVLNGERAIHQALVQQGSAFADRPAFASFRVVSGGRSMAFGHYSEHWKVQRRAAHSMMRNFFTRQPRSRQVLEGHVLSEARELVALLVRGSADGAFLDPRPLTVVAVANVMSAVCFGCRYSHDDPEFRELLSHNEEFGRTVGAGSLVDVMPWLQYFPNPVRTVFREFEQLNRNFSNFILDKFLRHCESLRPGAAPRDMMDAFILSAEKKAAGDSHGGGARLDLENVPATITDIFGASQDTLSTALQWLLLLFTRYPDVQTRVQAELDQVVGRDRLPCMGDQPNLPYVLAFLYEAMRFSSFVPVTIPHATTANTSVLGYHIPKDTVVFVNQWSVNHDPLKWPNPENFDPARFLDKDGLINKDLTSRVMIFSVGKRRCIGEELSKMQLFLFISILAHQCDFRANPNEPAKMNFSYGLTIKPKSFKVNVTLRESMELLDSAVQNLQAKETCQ
Description: To rigorously assess the activity of inhibitors under biologically relevant conditions, an assay was developed for screening of CYP1B1 activity in live cells.
A stable HEK cell line was created with CYP1B1 expression under the control of tetracycline to facilitate regulated and titratable expression (see the Methods section for more details). […] The fluorogenic substrate, 7-ethoxyresorufin (REE), is a validated substrate for both CYPs and was used in both assays. Cytochrome P450 oxidoreductase (POR) is the required reductase partner for CYPs, and was also overexpressed in these systems to improve catalytic efficiency and the resulting signal for the assay.
Cell lines were generated in the HEK293 T-Rex cell line. Following transfection, cells were selected with 500 μg/mL Zeocin, and 7.5 μg/mL Blasticidin to create a stable pool. Inducible expression of CYP and POR was confirmed by immunoblot. […] The lines were maintained with 250 μg/mL Zeocin and 7.5 μg/mL Blasticidin to ensure continued selective pressure.
Cell lines were seeded onto Geltrex coated 96-well plates at 40,000 cells/well, and grown overnight in DMEM media containing 1 μg/mL tetracycline. The media was then replaced with Opti-MEM supplemented with 2% FBS and 1 μg/mL tetracycline. Compounds were serially diluted in Opti-MEM supplemented with 2% FBS and 1 μg/mL tetracycline and an equal volume of compound added to the cells (n = 3). Following a 1 h incubation, resorufin ethyl ether (REE; for CYP1B1 and 1A1) or dibenzylfluorescein (DBF; for 19A1) was added to the cells for a total concentration of 5 μM for REE and 1 μM for DBF. […] Dose–response curves were generated in Prism and normalized using the no-compound control (set as 100% activity) and the no-cell control (set as 0% activity; this value in the raw data reflects the background fluorescence of the dye alone).
For the light-activated compounds, the experiment was modified as follows: Cells were seeded and grown overnight as described above. Media was replaced with L-15 containing 1 μg/mL tetracycline; L-15 media was used in place of opti-MEM™ to maintain CO2 outside the incubator, and to prevent cellular damage from light. Compounds were serially diluted in L-15 with 1 μg/mL tetracycline and added to the cells followed by a 1 h incubation. […] REE or DBF was added as described above.

[5] = system: cytochrome P450 enzymes in phLMs; assay: Inhibition of cytochrome P450 enzymes in pooled human liver microsomes (phLM); format: biochemical; conditions: ratio of IC50 phLM to CYP1B1; for complexes 4–6 IC50 (light)
Description: Pooled human liver microsomes were used to test the potential impact of the inhibitors on multiple polymorphisms of highly promiscuous, drug metabolizing CYPs[27]. There are more than 10 different CYPs in this preparation, and the use of pooled microsomes ensures that genetic variability in CYPs is represented. […] This is notable, as the liver CYPs have evolved to bind the widest possible variety of molecules.
Commercial preparations of pooled human liver microsomes come from 50 individuals, providing representation of biologically relevant CYP variants. Compounds were screened for inhibition of cytochrome P450 enzymes in phLMs using a 96-well kinetic assay. […] Compound stocks were diluted in dose–response, and added in 100 mM potassium phosphate buffer pH 7.8 with 50 µM 7-benzoyloxy-4-trifluoromethylcoumarin (Corning, prepared as a 10 mM DMSO stock) and 16 µg of phLMs (XenoTech, prepared as 20 mg protein/mL suspended in 250 mM sucrose) per well (n = 3). The compounds were incubated for 5 min in the absence of light at 25 °C. The 96-well plate was then either protected from light or irradiated with red light for 1 h (660 nm, 58.7 J/cm^2). Enzymatic turnover was initiated upon addition of NADPH (TCI, prepared immediately prior to addition) at a concentration 1.2 mM per well. To determine background fluorescence from the assay, NADPH was omitted from several control wells. The reactions were immediately placed in a SpectraFluor Plus plate reader (Tecan) preheated to 37 °C, and fluorescence measurements taken every 3 min for 120 min with excitation of 435 nm and emission of 525 nm. Fluorescence measurements in the […], and the data was processed with GraphPad Prism 6. The linear portion of the signal for each dose point with respect to time was first fitted to a line to determine the rate. The resulting slope of these lines was then plotted against the logarithmic concentration of the study compound to provide a dose–response curve.

COc1ccc(/C=C/c2ccncn2)c(OC)c1 [Compound 2]
viability at 72 h, 1.11 μM ([1]; Log Conc 0.045757): 97.3%
viability at 72 h, 3.33 μM ([1]; Log Conc 0.522879): 79.8%
viability at 72 h, 10 μM ([1]; Log Conc 1): 64.5%
viability at 72 h, 30 μM ([1]; Log Conc 1.47712): 51.9%
viability at 72 h, 0.37 μM ([1]; Log Conc -0.43136): 85.2%
viability at 72 h, 0.123 μM ([1]; Log Conc -0.90849): 89.2%
viability at 72 h, 0.0412 μM ([1]; Log Conc -1.38561): 92%
viability at 72 h, 0.0137 μM ([1]; Log Conc -1.86273): 93.4%
% Viable ([2]; Log Conc 0.045757): 94.5248% and 84.1248%
% Viable ([2]; Log Conc 0.522879): 84.1669% and 88.3577%
% Viable ([2]; Log Conc 1): 69.8564% and 78.2941%
% Viable ([2]; Log Conc 1.47712): 51.1449% and 56.2608%
% Viable ([2]; Log Conc -0.43136): 92.2822% and 92.2261%
% Viable ([2]; Log Conc -0.90849): 98.0989% and 92.2261%
% Viable ([2]; Log Conc -1.38561): 94.0623% and 98.2391%
% Viable ([2]; Log Conc -1.86273): 98.7016% and 97.4401%
pIC50 [3]: 4.97
% Enzyme Activity ([4]; Log Conc 0.39794): -2.174% and -0.1456% and -1.116%
% Enzyme Activity ([4]; Log Conc 1): -3.921% and -4.348% and -1.514%
% Enzyme Activity ([4]; Log Conc -0.20412): 3.833% and 3.484% and 3.455%
% Enzyme Activity ([4]; Log Conc -0.80618): 23.2531% and 22.7484% and 23.8839%
% Enzyme Activity ([4]; Log Conc -1.40824): 62.2283% and 59.9476% and 62.7038%
% Enzyme Activity ([4]; Log Conc -2.0103): 95.9724% and 93.1289% and 92.7213%
% Enzyme Activity ([4]; Log Conc -2.61236): 93.2065% and 104.319% and 107.88%
% Enzyme Activity ([4]; Log Conc -3.21442): 101.359% and 108.531% and 103.62%
% Enzyme Activity ([4]; Log Conc -3.81648): 105.357% and 94.6429%
p IC50(uM) ([4]; negative log of the IC50 in μM): 1.119
SI (1B1:phLM) [5]: 16
